Binding affinity, Kd and affinity data for three compounds are collected here from US11434479B2, “Sialic acid binding polypeptide” (priority 2017, dated 2022).

Each structure is given as a SMILES string. Where a chain is given by its changes, count along the chain named. pKd: −log10 of the molar value.

In general, pKd refers to −log10 of the Kd, conventionally taken in molar units.

Assay [1] concerns the target T1, Streptococcus pneumoniae NanB fragment (residues 30-697, SEQ ID NO:4) variant Sia-PS5, E541Q (Streptococcus pneumoniae serotype 4, UniProt Q54727, E541Q).
T1 construct: exemplified by a NanB fragment (residues 30-697); poly-histidine; made in house; host or cells: pET28a+ based plasmid
T1 sequence (Q54727 30-692 E541Q): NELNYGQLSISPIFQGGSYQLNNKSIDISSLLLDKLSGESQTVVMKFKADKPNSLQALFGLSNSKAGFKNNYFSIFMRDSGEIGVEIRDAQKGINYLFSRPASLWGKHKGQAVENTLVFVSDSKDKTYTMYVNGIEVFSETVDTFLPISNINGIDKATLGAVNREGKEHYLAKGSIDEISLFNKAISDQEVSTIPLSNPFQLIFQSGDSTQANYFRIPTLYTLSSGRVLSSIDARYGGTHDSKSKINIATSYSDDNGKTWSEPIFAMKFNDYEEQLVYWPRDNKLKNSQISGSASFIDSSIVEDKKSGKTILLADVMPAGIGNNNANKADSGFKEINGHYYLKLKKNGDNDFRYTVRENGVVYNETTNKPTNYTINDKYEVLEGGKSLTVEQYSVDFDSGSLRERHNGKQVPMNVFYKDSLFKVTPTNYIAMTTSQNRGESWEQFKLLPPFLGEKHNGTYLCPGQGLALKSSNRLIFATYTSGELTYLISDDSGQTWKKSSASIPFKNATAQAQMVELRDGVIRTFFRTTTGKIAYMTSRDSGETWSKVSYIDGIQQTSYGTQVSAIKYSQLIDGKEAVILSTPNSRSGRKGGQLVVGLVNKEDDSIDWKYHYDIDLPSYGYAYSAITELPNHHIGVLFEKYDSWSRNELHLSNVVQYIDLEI
Put plainly: Bio-layer Interferometry (BLI) steady-state binding to immobilized oligosaccharides. To be noted: in words. An excerpt:
Lsp=lactose (no sialic acid), 3′SL=α2,3-sialyllactose, 6′SL=α2,6-sialyllactose, GD3=GD3 oligosaccharide that contains a terminal α2,8-linked Neu5Ac residue and an internal α2,3-linked Neu5Ac residue.
The pan-specific sialic acid-recognizing affinity reagent of the invention is exemplified by a NanB fragment (residues 30-697; SEQ ID NO:4) with a single mutation. Exemplary mutation sites include Y653, D270, and E541. Exemplary pan-specific affinity reagents, each having a single mutation in the NanB GH domain as noted, are shown in Table 2 and include Sia-PS1 (Y653F), Sia-PS2 (D270A), Sia-PS3 (D270N), Sia-PS4 (E541A), and Sia-PS5 (E541Q). […] They reduce (Sia-PS2 and Sia-PS3) or effectively eliminate (Sia-PS1, Sia-PS4, and Sia-PS5) catalytic activity, and they broaden specificity for sialic acid ligand binding. The pan-specific sialic acid-recognizing affinity reagent we chose for further validation study was Sia-PS1 that contains the Y653F at active site residue Tyr653. This one mutation, which involves removal of a single hydroxyl group, not only eliminates enzyme activity, but astonishingly introduces pan-specific binding into the mutated, inactivated enzyme, despite its distance from the carbohydrate binding module (CBM) domain of the NanB.
(§1) The flowchart presented in FIG. 2 outlines schematically the methods employed in Example I and II to screen, optimize and select the Lectenz® candidates. The specificity and affinity of potential Lectenz® candidates is evaluated through structurally-guided site-specific and/or site-saturation mutagenesis assays designed to enable the selection of optimal clones. Bio-layer Interferometry (BLI) is used to determine the binding kinetics and affinities for binding to glycans and glycoproteins. Affinity chromatography is performed by immobilizing the Lectenz® candidates in a column format to evaluate their ability to fractionate sialylated- and asialo-glycans and glycoconjugates. All promising Lectenz® candidates are screened against the glycan array at the CFG, which currently contains over 600 O- and N-linked glycans.
Steady-state binding constants between Lectenz® candidates and sialic acid ligands were measured by BLI.

In the next assay the target is SNA (S. Nigra lectin). As to conditions: reported values [16]; cited from earlier work.
The target of assay [2] is T2, Streptococcus pneumoniae NanB fragment (residues 30-697, SEQ ID NO:4) variant Sia-3S1, R193A, D270Q, A538V, E541D (Streptococcus pneumoniae serotype 4, UniProt Q54727, A538V/D270Q/E541D/R193A).
T2 construct: exemplified by a NanB fragment (residues 30-697); made in house; host or cells: E. coli
T2 sequence (Q54727 30-692 R193A/D270Q/A538V/E541D): T1 sequence (Q54727 30-692 E541Q) with R164A, D241Q, A509V, Q512D
In words: Bio-layer Interferometry (BLI) binding to immobilized 3′SL and 6′SL. To be noted: in words, well-defined buffer conditions (10 mM EPPS, 10 or 25 mM NaCl, pH 7.5). As for the experimental part: FIGS. 14A and […] show BLI sensograms for the binding of Sia-3S1 (analyte) under different buffer conditions to oligosaccharides (immobilized ligands): 3′SL=α2,3-sialyllactose, 6′SL=α2,6-sialyllactose.
as §1
The methods are as described in Example I.

Assay [3] addresses MAL (Maackia amurensis leukoagglutinin). To be noted: reported values [16, 17]; cited from earlier work.

`CC(=O)N[C@H]1[C@H]([C@H](O)[C@H](O)CO)O[C@@](O[C@H](CO)[C@@H](O)[C@@H]2O[C@@](O[C@H]3[C@@H](O)[C@@H](CO)O[C@@H](O[C@H]4[C@H](O)[C@@H](O)C(O)O[C@@H]4CO)[C@@H]3O)(C(=O)O)C[C@H](O)[C@H]2NC(C)=O)(C(=O)O)C[C@@H]1O` (stereo partly drawn) [GD3, Neu5Acα2,8Neu5Acα2,3Galβ1, 4Glcβ]: the binding affinity entry in assay [1] was “micromolar or sub-micromolar”.
As to `CC(=O)N[C@H]1[C@H]([C@H](O)[C@H](O)CO)O[C@@](OC[C@H]2O[C@@H](O[C@H]3[C@H](O)[C@@H](O)C(O)O[C@@H]3CO)[C@H](O)[C@@H](O)[C@H]2O)(C(=O)O)C[C@@H]1O` (stereo partly drawn) [6′SL, 6′-sialyllactose (Neu5Acα2,6Galβ1, 4Glcβ, or 6′SL)], at SNA (S. Nigra lectin), the pKd is 6.05 to 6.22. Moreover, in assay [1], the binding affinity result is reported as “micromolar or sub-micromolar”.
For the compound `CC(=O)N[C@H]1[C@H]([C@H](O)[C@H](O)CO)O[C@@](O[C@H]2[C@@H](O)[C@@H](CO)O[C@@H](O[C@H]3[C@H](O)[C@@H](O)C(O)O[C@@H]3CO)[C@@H]2O)(C(=O)O)C[C@@H]1O` (stereo partly drawn) [3′SL, α2,3-sialyllactose], the binding affinity entry in assay [1] was “micromolar or sub-micromolar”. In addition, the affinity result in assay [2] is “high and preferential affinity for 3′SL over 6′SL”. Besides, in assay [3], the pKd was 5.52 to 6.00.
